The source of these data is PubChem BioAssay AID1159560 (GlaxoSmithKline (GSK), 2015).

SMILES strings stand for the structures. Calls of active or inactive are those of the source. No rule for the calls is given here. Some results are limits rather than exact numbers.

The test has as its system Leishmania donovani growth inhibition. Kind of test: antileishmanial activity against L. donovani parasites (AID 1159560).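 Also: parasites exposed to compound for 72 h before the viability read.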
Regarding `Cc1cc(Nc2ccc(C#N)c(Cl)c2C)n[nH]1`, the IC50 was 50 µM.
With `O=C(NCC(c1cccnc1)N1CCc2ccccc2C1)C(=O)Nc1cccc(Cl)c1` (configuration not stated), the IC50 was 1.3 µM.
Turning to `COc1ccc(NS(=O)(=O)c2cc(-c3cc(C)[nH]n3)ccc2C)cc1OC`, the IC50 is 1 µM.
Take `Cn1cncc1CN1CCC2(CC1)COC(Cc1ccccc1)C2` (configuration not stated): the IC50 is 13 µM.
In the case of `O=C(NCCc1ccccn1)C(c1cn[nH]c1)N1CCN(c2ccc(Cl)c(Cl)c2)CC1` (configuration not stated) it was 2.5 µM; in that of `CCN(CC)c1ncc(C(=O)c2ccc([N+](=O)[O-])o2)s1`, 5 µM; in that of `CS(=O)(=O)c1ccc(CC(=O)Nc2nc(-c3ccc(Cl)s3)cs2)cc1`, > 50 µM (inactive).
In the case of `O=c1ccc2ccc(F)c3c2n1C[C@H]3CN1CCN(CC(O)c2cc3c(cn2)OCS3)CC1` (some centres not stated), the IC50 is 20 µM.
Consider `Cc1ccc(Nc2nc(N)nc(CNC(c3nc4ccccc4[nH]3)C(C)C)n2)cc1` (configuration not stated), for which the IC50 was 4 µM.
As for `COc1ccc(OC)c(NC(=O)c2ccc([N+](=O)[O-])o2)c1`, the IC50 was 25 µM.
As for `Cc1nc2nc(C)c(Cc3ccc(C(C)C)cc3)c(=O)n2[nH]1`, the half-inhibitory concentration (IC50) is 1.3 µM.
`O=C(c1cnn(-c2ccccc2)n1)N1CCCC(n2ccnc2)C1` (configuration not stated): the IC50 was 7.9 µM.
Regarding `Nc1nc(-c2ccccn2)nc(-n2nc(-c3ccccc3)cc2N)n1`, the half-inhibitory concentration (IC50) is 2 µM.
As to `O=C(NCCCn1cnc2ccccc21)c1ccc(NC(=O)c2ccco2)cc1`, the IC50 was 1.3 µM.
In the case of `Cc1cc(=O)n2nc(Oc3ccc(C#N)cc3Cl)sc2n1` it was 13 µM.
Take `CC(Cn1ccnc1)NC(=O)COc1ccc(Cl)c(Cl)c1` (configuration not stated): the IC50 is > 50 µM (inactive).
In the case of `CNC(=O)C1Cc2ccccc2N1C(=O)Cc1ccccc1` (configuration not stated), the IC50 was > 50 µM (inactive).
`O=C(NCCc1csc(-c2ccc(F)cc2)n1)c1ccco1`: the IC50 was > 50 µM (inactive).
For `N#Cc1cnc(Nc2cccc(CCN3CCOCC3)c2)nc1Nc1ccccc1C(N)=O`, the IC50 is 2.5 µM.
Take `CCOc1ccc(OCC(=O)N2c3ccccc3CC2C(=O)NC)cc1` (configuration not stated): the IC50 was > 50 µM (inactive).
As for `CC(C)(C)C(Cn1ccnc1)NC(=O)c1ccc2nc(C3CC3)oc2c1` (configuration not stated), the IC50 is 20 µM.
Take `CN(C)S(=O)(=O)c1ccc(-c2cnc(N)c(-c3nc4ccc(F)cc4[nH]3)c2)cc1`: the IC50 is 2.5 µM.
Regarding `O=C(NC1CCN(C2Cc3ccc(NS(=O)(=O)c4cc(F)cc(F)c4)cc3C2)CC1)C1CC1` (configuration not stated), the IC50 was 25 µM.
In the case of `Cc1ccc(NC(=O)c2ccc([N+](=O)[O-])s2)cc1S(=O)(=O)N1CCOCC1` it was 2 µM; in that of `COc1ccc(C(=O)NC2CCN(CCn3c(=O)ccc4ncc(F)cc43)CC2)cc1Cl`, 4 µM; in that of `Cn1nc([N+](=O)[O-])nc1Oc1ccc(C(=O)c2ccccc2)cc1`, > 50 µM (inactive).
In the case of `CCOc1ccccc1C(=O)Nc1nnc(-c2ccc3c(c2)OCO3)s1`, the IC50 is 0.79 µM.
In the case of `CCC(CC)C(=O)Nc1ccc(-c2nnc(-c3ccc(OC)cc3)o2)cc1` it was > 50 µM (inactive).
Consider `OCCCNc1nc(Nc2ccncc2)nc2ccccc12`, for which the IC50 was 40 µM.
Turning to `O=c1cc(NCCCNC2CCOc3c(I)cc(Cl)cc32)[nH]c2ccccc12` (configuration not stated), the IC50 was 32 µM.
As to `COc1cnc2ccc(=O)n(CCN3CCC(NC(=O)c4ccc(Cl)cc4)CC3)c2c1`, the IC50 was 2 µM.
The figure for `CCCN1CCN(Cc2ccc(S(=O)(=O)Nc3cccc(C)c3)cc2)CC1` is 25 µM; for `CCC(c1ccc(F)cc1)n1cncc1-c1cnn(C)c1` (configuration not stated) it is > 50 µM (inactive); for `COCc1cc(Nc2cccc(Cl)c2)nc(-c2ccccn2)n1` it is 2.5 µM.
As for `CCc1ccc2nc(NC(=O)c3cc(N4CCOCC4)ccn3)sc2c1`, the IC50 is 2 µM.
`COc1ccc(NS(=O)(=O)c2cc(NC(=O)c3ccc([N+](=O)[O-])s3)ccc2OC)cc1`: the IC50 was 0.5 µM.
The figure for `CC(=O)Nc1ccc(-c2cnc(N)c(-c3nc4ccc(F)cc4[nH]3)c2)cc1` is 6.3 µM.

By IC50 is commonly meant the concentration that inhibits the measured activity by half.
